The CheMixHub viscosity set
Values joined by “and” are separate entries in the source; they are usually repeats but may differ in a detail not shown here. Equal values may be shown once. ± gives the uncertainty stated by the source.

Assay: xn = mol fraction of the nth substance listed
Details: 101.3 kPa

O=[N+]([O-])c1ccccc1 + CCCCC
Details | viscosity
293.15 K, x1 = 0.0998 | 0.272 ± 0.002 mPa·s
293.15 K, x1 = 0.1994 | 0.336 ± 0.003 mPa·s
293.15 K, x1 = 0.5984 | 0.79 ± 0.005 mPa·s
293.15 K, x1 = 0.6995 | 0.972 ± 0.006 mPa·s
293.15 K, x1 = 0.7997 | 1.221 ± 0.007 mPa·s
293.15 K, x1 = 0.9 | 1.549 ± 0.009 mPa·s
297.15 K, x1 = 0.0998 | 0.262 ± 0.002 mPa·s
297.15 K, x1 = 0.1994 | 0.322 ± 0.003 mPa·s
297.15 K, x1 = 0.299 | 0.42 ± 0.003 mPa·s
297.15 K, x1 = 0.3491 | 0.52 ± 0.004 mPa·s
297.15 K, x1 = 0.399 | 0.596 ± 0.004 mPa·s
297.15 K, x1 = 0.4589 | 0.603 ± 0.004 mPa·s
297.15 K, x1 = 0.494 | 0.623 ± 0.004 mPa·s
297.15 K, x1 = 0.5984 | 0.748 ± 0.005 mPa·s
297.15 K, x1 = 0.6995 | 0.921 ± 0.006 mPa·s
297.15 K, x1 = 0.7997 | 1.15 ± 0.007 mPa·s
297.15 K, x1 = 0.9 | 1.452 ± 0.009 mPa·s
297.16 K, x1 = 0.383 | 0.62 ± 0.15 mPa·s
297.17 K, x1 = 0.299 | 0.42 ± 0.003 mPa·s
297.17 K, x1 = 0.3491 | 0.517 ± 0.004 mPa·s
297.17 K, x1 = 0.383 | 0.619 ± 0.16 mPa·s and 0.617 ± 0.15 mPa·s and 0.61 ± 0.15 mPa·s
297.17 K, x1 = 0.3832 | 0.614 ± 0.004 mPa·s
297.17 K, x1 = 0.399 | 0.591 ± 0.004 mPa·s
297.17 K, x1 = 0.4589 | 0.602 ± 0.004 mPa·s
297.17 K, x1 = 0.494 | 0.623 ± 0.004 mPa·s
297.18 K, x1 = 0.383 | 0.604 ± 0.12 mPa·s
297.2 K, x1 = 0.383 | 0.593 ± 0.1 mPa·s
297.23 K, x1 = 0.383 | 0.583 ± 0.058 mPa·s
297.29 K, x1 = 0.383 | 0.565 ± 0.046 mPa·s
297.34 K, x1 = 0.383 | 0.558 ± 0.025 mPa·s
297.44 K, x1 = 0.383 | 0.546 ± 0.017 mPa·s
297.6 K, x1 = 0.383 | 0.535 ± 0.01 mPa·s
297.65 K, x1 = 0.0998 | 0.261 ± 0.002 mPa·s
297.65 K, x1 = 0.1994 | 0.321 ± 0.003 mPa·s
297.65 K, x1 = 0.299 | 0.415 ± 0.003 mPa·s
297.65 K, x1 = 0.3491 | 0.488 ± 0.004 mPa·s
297.65 K, x1 = 0.3832 | 0.532 ± 0.004 mPa·s
297.65 K, x1 = 0.399 | 0.55 ± 0.004 mPa·s
297.65 K, x1 = 0.4589 | 0.592 ± 0.004 mPa·s
297.65 K, x1 = 0.494 | 0.616 ± 0.004 mPa·s
297.65 K, x1 = 0.5984 | 0.743 ± 0.005 mPa·s
297.65 K, x1 = 0.6995 | 0.915 ± 0.006 mPa·s
297.65 K, x1 = 0.7997 | 1.142 ± 0.007 mPa·s
297.65 K, x1 = 0.9 | 1.441 ± 0.009 mPa·s
298 K, x1 = 0.383 | 0.52 ± 0.006 mPa·s
298.15 K, x1 = 0.0998 | 0.26 ± 0.002 mPa·s
298.15 K, x1 = 0.1994 | 0.319 ± 0.003 mPa·s
298.15 K, x1 = 0.299 | 0.411 ± 0.003 mPa·s
298.15 K, x1 = 0.3491 | 0.476 ± 0.003 mPa·s
298.15 K, x1 = 0.3832 | 0.515 ± 0.004 mPa·s
298.15 K, x1 = 0.399 | 0.536 ± 0.004 mPa·s
298.15 K, x1 = 0.4589 | 0.584 ± 0.004 mPa·s
298.15 K, x1 = 0.494 | 0.61 ± 0.004 mPa·s
298.15 K, x1 = 0.5984 | 0.738 ± 0.005 mPa·s
298.15 K, x1 = 0.6995 | 0.909 ± 0.006 mPa·s
298.15 K, x1 = 0.7997 | 1.134 ± 0.007 mPa·s
298.15 K, x1 = 0.9 | 1.43 ± 0.009 mPa·s
298.76 K, x1 = 0.383 | 0.504 ± 0.005 mPa·s
299.15 K, x1 = 0.0998 | 0.257 ± 0.002 mPa·s
299.15 K, x1 = 0.1994 | 0.316 ± 0.003 mPa·s
299.15 K, x1 = 0.299 | 0.404 ± 0.003 mPa·s
299.15 K, x1 = 0.3491 | 0.461 ± 0.003 mPa·s
299.15 K, x1 = 0.3832 | 0.498 ± 0.004 mPa·s
299.15 K, x1 = 0.399 | 0.518 ± 0.004 mPa·s
299.15 K, x1 = 0.4589 | 0.571 ± 0.004 mPa·s
299.15 K, x1 = 0.494 | 0.6 ± 0.004 mPa·s
299.15 K, x1 = 0.5984 | 0.729 ± 0.005 mPa·s
299.15 K, x1 = 0.6995 | 0.897 ± 0.006 mPa·s
299.15 K, x1 = 0.7997 | 1.118 ± 0.007 mPa·s
299.15 K, x1 = 0.9 | 1.406 ± 0.008 mPa·s
299.88 K, x1 = 0.383 | 0.489 ± 0.004 mPa·s
302.28 K, x1 = 0.383 | 0.466 ± 0.004 mPa·s
305.15 K, x1 = 0.0998 | 0.245 ± 0.002 mPa·s
305.15 K, x1 = 0.1994 | 0.298 ± 0.002 mPa·s
305.15 K, x1 = 0.299 | 0.373 ± 0.003 mPa·s
305.15 K, x1 = 0.3491 | 0.417 ± 0.003 mPa·s
305.15 K, x1 = 0.3832 | 0.447 ± 0.003 mPa·s
305.15 K, x1 = 0.399 | 0.466 ± 0.003 mPa·s
305.15 K, x1 = 0.4589 | 0.52 ± 0.004 mPa·s
305.15 K, x1 = 0.494 | 0.551 ± 0.004 mPa·s
305.15 K, x1 = 0.5984 | 0.677 ± 0.005 mPa·s
305.15 K, x1 = 0.6995 | 0.831 ± 0.005 mPa·s
305.15 K, x1 = 0.7997 | 1.031 ± 0.006 mPa·s
305.15 K, x1 = 0.9 | 1.284 ± 0.008 mPa·s
305.99 K, x1 = 0.383 | 0.442 ± 0.003 mPa·s
313.15 K, x1 = 0.0998 | 0.229 ± 0.002 mPa·s
313.15 K, x1 = 0.1994 | 0.277 ± 0.002 mPa·s
313.15 K, x1 = 0.299 | 0.342 ± 0.003 mPa·s
313.15 K, x1 = 0.3491 | 0.38 ± 0.003 mPa·s
313.15 K, x1 = 0.3832 | 0.403 ± 0.003 mPa·s
313.15 K, x1 = 0.399 | 0.424 ± 0.003 mPa·s
313.15 K, x1 = 0.4589 | 0.471 ± 0.003 mPa·s
313.15 K, x1 = 0.494 | 0.503 ± 0.004 mPa·s
313.15 K, x1 = 0.5984 | 0.616 ± 0.004 mPa·s
313.15 K, x1 = 0.6995 | 0.753 ± 0.005 mPa·s
313.15 K, x1 = 0.7997 | 0.929 ± 0.006 mPa·s
313.15 K, x1 = 0.9 | 1.143 ± 0.007 mPa·s
